Results as given in the NIST ThermoML archive (doi:10.1021/acs.jced.7b00288).
± gives the expanded uncertainty stated by the source.

Key:
[1] = Crystal; DTA
[2] = Molar enthalpy of transition or fusion; settings: Crystal; DSC

- Normal melting temperature [1]: 121.68 ± 0.43 °C
- Molar enthalpy of transition or fusion [2]: 6.4 ± 0.206 kcal/mol
SMILES: Cc1ccc(NC(=O)C(C)Cl)cc1 (configuration not stated) [2-chloro-N-(4-methylphenyl)propanamide]
